Experimental data reported in patent US20210364519A1, “DETERMINING CANCER RESPONSIVENESS TO TREATMENT” (Queensland University of Technology, priority 2018, published 2021).

Columns and labels:
[1] = test system: cell lines depleted of SASH1; experiment: Olaparib sensitivity of cell lines depleted of SASH1 using siRNA; type: cell-based; settings: number of cell lines tested
Text: FIG. 5. Depletion of SASH1 increases cancer cell sensitivity to Olaparib. A) Cell lines depleted of SASH1 have a reduced IC50 to Olaparib. B) Combined data of cell lines with SASH1 depletion showing a significant reduction in IC50 to Olaparib.

[2] = test system: U2OS cells; experiment: Olaparib sensitivity of stable U2OS cell line ectopically expressing recombinant SASH1; type: cell-based
Text: FIG. 6. Over expression of SASH1 infers resistance to Olaparib in U2OS cells.
Further to this, we made a stable U2OS cell line ectopically expressing recombinant SASH1.

## O=C(c1cc(Cc2n[nH]c(=O)c3ccccc23)ccc1F)N1CCN(C(=O)C2CC2)CC1 [Olaparib]
[1]
  cell lines with increase in sensitivity to Olaparib after depletion of SASH1: 9 out of 12
[2]
  effect of SASH1 over-expression on Olaparib response: sufficient to induce resistance
